# Assay results published in patent US10508104B2, “6-hydroxy-5-(phenyl/heteroarylsulfonyl)pyrimidin-4(1H)-one as APJ agonists” (Bristol-Myers Squibb Company, priority 2016, dated 2019).
# Target: human APJ receptor (Homo sapiens (Human), UniProt P35414)
# Test: Intracellular cAMP accumulation assay (APJ hcAMP, HTRF)
# Type: cell-based
# Settings: human APJ, cAMP accumulation; read-out: Human APJ cAMP EC50 Potency range
# Method in brief: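 HEK293 cells stably expressing human APJ, 5,000 per well, incubated 30 min at rt with compound, […] and 2 μM forskolin. cAMP measured by HTRF against a cAMP standard curve as inhibition of forskolin-driven production. EC50 from variable-slope sigmoidal fit.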
# human APJ receptor, sequence (P35414 whole entry): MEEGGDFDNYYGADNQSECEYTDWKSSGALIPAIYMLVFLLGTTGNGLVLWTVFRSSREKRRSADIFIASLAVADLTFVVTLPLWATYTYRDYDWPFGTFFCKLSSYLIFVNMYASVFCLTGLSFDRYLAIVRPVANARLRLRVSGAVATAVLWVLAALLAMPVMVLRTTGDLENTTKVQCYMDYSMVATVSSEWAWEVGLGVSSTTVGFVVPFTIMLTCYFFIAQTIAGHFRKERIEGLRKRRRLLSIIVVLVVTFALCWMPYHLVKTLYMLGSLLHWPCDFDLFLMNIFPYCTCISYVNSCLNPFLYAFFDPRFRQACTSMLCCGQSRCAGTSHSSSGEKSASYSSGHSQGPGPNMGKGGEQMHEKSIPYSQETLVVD
row,Structure (SMILES),EC50
1,"CCOCc1nc(=O)c(S(=O)(=O)c2ccc(-c3ccc(F)nc3C)cc2)c(O)n1[C@@H](CC)c1ccccc1 [Example 308, 2-(ethoxymethyl)-5-[4-(6-fluoro-2-methylpyridin-3-yl)benzenesulfonyl]-6-hydroxy-1-[(1S)-1-phenylpropyl]-1,4-dihydropyrimidin-4-one]",0.01 to 10 nM
2,"CCOCc1nc(=O)c(S(=O)(=O)c2ccc(-c3ccc(OC)nc3C)cc2)c(O)n1[C@@H](CC)c1ccccc1 [Example 309, 2-(ethoxymethyl)-6-hydroxy-5-[4-(6-methoxy-2-methylpyridin-3-yl)benzenesulfonyl]-1-[(1S)-1-phenylpropyl]-1,4-dihydropyrimidin-4-one]",0.01 to 10 nM
3,"CCOCc1nc(=O)c(S(=O)(=O)c2ccc(-c3cccnc3C)cc2)c(O)n1[C@@H](CC)c1ccccc1 [Example 310, 2-(ethoxymethyl)-6-hydroxy-5-[4-(2-methylpyridin-3-yl)benzenesulfonyl]-1-[(1S)-1-phenylpropyl]-1,4-dihydropyrimidin-4-one]",0.01 to 10 nM
4,"CC[C@@H](c1ccccc1)n1c(COC(C)C)nc(=O)c(S(=O)(=O)c2ccc(-c3ccc(F)nc3C)cc2)c1O [Example 311, 5-[4-(6-fluoro-2-methylpyridin-3-yl)benzenesulfonyl]-6-hydroxy-1-[(1S)-1-phenylpropyl]-2-[(propan-2-yloxy)methyl]-1,4-dihydropyrimidin-4-one]",0.01 to 10 nM
5,"CC[C@@H](c1ccccc1)n1c(COC(C)C)nc(=O)c(S(=O)(=O)c2ccc(-c3ccnc(F)c3C)cc2)c1O [Example 312, 5-[4-(2-fluoro-3-methylpyridin-4-yl)benzenesulfonyl]-6-hydroxy-1-[(1S)-1-phenylpropyl]-2-[(propan-2-yloxy)methyl]-1,4-dihydropyrimidin-4-one]",0.01 to 10 nM
6,"CC[C@@H](c1ccccc1)n1c(COC(C)C)nc(=O)c(S(=O)(=O)c2ccc(-c3cccnc3C)cc2)c1O [Example 313, 6-hydroxy-5-[4-(2-methylpyridin-3-yl)benzenesulfonyl]-1-[(1S)-1-phenylpropyl]-2-[(propan-2-yloxy)methyl]-1,4-dihydropyrimidin-4-one]",0.01 to 10 nM
7,"CC[C@@H](c1ccccc1)n1c(COC(C)C)nc(=O)c(S(=O)(=O)c2ccc(-c3ccncc3C)cc2)c1O [Example 314, 6-hydroxy-5-[4-(3-methylpyridin-4-yl)benzenesulfonyl]-1-[(1S)-1-phenylpropyl]-2-[(propan-2-yloxy)methyl]-1,4-dihydropyrimidin-4-one]",0.01 to 10 nM

# The remaining lines, values ahead:
row,EC50,Structure (SMILES)
1,0.01 to 10 nM,"CCOCc1nc(=O)c(S(=O)(=O)c2ccc(-c3ccncc3C)cc2)c(O)n1[C@@H](COC)c1ccccc1 [Example 315, 2-(ethoxymethyl)-6-hydroxy-1-[(1R)-2-methoxy-1-phenylethyl]-5-[4-(3-methylpyridin-4-yl)benzenesulfonyl]-1,4-dihydropyrimidin-4-one]"
2,0.01 to 10 nM,"CCOCc1nc(=O)c(S(=O)(=O)c2ccc(-c3ccnc(F)c3C)cc2)c(O)n1[C@@H](COC)c1ccccc1 [Example 316, 2-(ethoxymethyl)-5-[4-(2-fluoro-3-methylpyridin-4-yl)benzenesulfonyl]-6-hydroxy-1-[(1R)-2-methoxy-1-phenylethyl]-1,4-dihydropyrimidin-4-one]"
3,10 to 100 nM,"CCOCc1nc(=O)c(S(=O)(=O)c2ccc(-c3ccc(F)nc3)cc2)c(O)n1[C@@H](COC)c1ccccc1 [Example 317, 2-(ethoxymethyl)-5-[4 (6-fluoropyridin-3-yl)benzenesulfonyl]-6-hydroxy-1-[(1R)-2-methoxy-1-phenylethyl]-1,4-dihydropyrimidin-4-one]"
4,0.01 to 10 nM,"CCOCc1nc(=O)c(S(=O)(=O)c2ccc(-c3ccc(F)nc3C)cc2)c(O)n1[C@@H](COC)c1ccccc1 [Example 318, 2-(ethoxymethyl)-5-[4-(6-fluoro-2-methylpyridin-3-yl)benzenesulfonyl]-6-hydroxy-1-[(1R)-2-methoxy-1-phenylethyl]-1,4-dihydropyrimidin-4-one]"
